# Where “and” joins values, the source holds several entries; their conditions need not be identical. Identical values can stand only once.
# Legend:
# African green monkeys = assay: Monkey pilot study of plasma cholesterol levels on a hypercholesterolemic diet; type: in vivo; details: for Plasma Cholesterol Levels, individual animals: animals 1-6; for Plasma Cholesterol Levels, Mean: mean of six animals
# Description: To study the effect in short term lowering of plasma cholesterol concentrations in African green monkeys.
# Six African green monkeys were given a hypercholesterolemic diet containing 16.4% lard and 0.33% cholesterol for two weeks to establish a baseline cholesterol level. Thereafter, two daily doses of [14a,5a]-4-(2-propenyl)cholestan-3a-ol, the compound of Example 5, were administered in their feed at 25 mg/kg/day total daily dosage. After ten days the drug dose was increased to 50 mg/kg/day for an additional 3 weeks, followed by a washout period when no drug was administered and the hypercholesterolemic diet was maintained. Blood samples were drawn on the days indicated and plasma was prepared foranalysis. Cholesterol was determined by standard enzymatic techniques(method of Allain et aI., using diagnostics high performance Cholesterol Reagent No. 236691, product of Boehringer Mannheim Co., Indianapolis, Indiana USA).
# Syrian Golden hamsters = assay: In vivo serum cholesterol lowering in hamsters fed a cholesterol test diet; details: hamsters
# Description: Syrian Golden hamsters were fed a cholesterol test diet made of 10% coconut oil and 0.12% cholesterol (by weight) in Purina 5001 Rodent Chow to induce hypercholesteriolemia.
# After two weeks on the cholesterol test diet the hamsters were bled from the orbital sinium under light CO2 anesthesia. Serum was prepared and analyzed for cholesterol using a commercial test kit (Cholesterol High Performance, Single Vial™, product of Boehringer Mannheim Corp., Indianapolis, IN, USA). The hamsters were separated into groups of six animals, such that each group had approximately the same mean serum cholesterol levels. Selected compounds of the invention were incorporated into the Cholesterol Test Diet at 0.2% (w/w) and fed to the hamsters for one week. A control group of hamsters continued on the Cholesterol Test Diet during the same one-week period. The dose of test compounds of the invention was equivalent to 100 mg/kg/day based on the weight of the hamsters and their diet consumption. Upon completion of the test period, the animals were bled and serum cholesterol determined as above.
# Mean serum cholesterol values from the test hamsters were compared to values from the control group and tested for significance at the Z.05 level using Dunnett's test.
# [1] = tested on: human LDL receptor promoter; assay: in vitro Luciferase Activity Test (LDL receptor promoter-luciferase reporter in recombinant CHO cells); type: cell-based; details: maximum activity (%) over control, 15% luciferase activity cutoff point (footnote 2)
# Summary of the method: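 Stably transfected CHO clone S27/B30 carries the 1546 bp human LDL receptor promoter driving firefly luciferase; an SV40 promoter-luciferase CHO line serves as nonspecific-transcription control. Assay medium is DMEM/Ham's F-12 (3:1) with 20 mM HEPES, 0.5% bovine albumin and 0.5 µg/ml 25-hydroxycholesterol.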
compound,measurement,setting,value
"C=CC[C@@H]1[C@H](O)CC[C@@]2(C)[C@H]1CC[C@@H]1[C@@H]2CC[C@]2(C)[C@@H]([C@H](C)CCCC(C)C)CC[C@@H]12 [Example 5, [4a,5a]-4-(2-propenyl)cholestan-3a-ol]","Plasma Cholesterol Levels, individual animals","African green monkeys; Day 4, dose 50 mg/kg/day in feed, 50 mg/kg/day",184 and 878 and 155 and 159 and 148 and 211
same,"Plasma Cholesterol Levels, Mean","African green monkeys; Day 4, dose 50 mg/kg/day",205
same,"Plasma Cholesterol Levels, individual animals","African green monkeys; Day 5, dose 25 mg/kg/day in feed, 25 mg/kg/day",268 and 411 and 175 and 182 and 189 and 252
same,"Plasma Cholesterol Levels, Mean","African green monkeys; Day 5, dose 25 mg/kg/day, Day 0 mean 252",244
same,"Plasma Cholesterol Levels, individual animals","African green monkeys; Day 7 Washout (no drug, diet maintained)",209 and 251 and 165 and 192 and 174 and 200
same,"Plasma Cholesterol Levels, Mean",African green monkeys; Day 7 Washout,199
same,"Plasma Cholesterol Levels, individual animals","African green monkeys; Day 8, dose 25 mg/kg/day in feed, 25 mg/kg/day",208 and 386 and 172 and 184 and 174 and 249
same,"Plasma Cholesterol Levels, Mean","African green monkeys; Day 8, dose 25 mg/kg/day",226
same,"Plasma Cholesterol Levels, Mean",African green monkeys; Day 12 (50 mg/kg/day per method),190
same,"Plasma Cholesterol Levels, individual animals","African green monkeys; Day 12 (dose not given; 50 mg/kg/day per method), 50 mg/kg/day",172 and 276 and 159 and 169 and 157 and 206
same,"Plasma Cholesterol Levels, individual animals","African green monkeys; Day 14 Washout (no drug, diet maintained)",226 and 311 and 176 and 159 and 173 and 213
same,"Plasma Cholesterol Levels, Mean",African green monkeys; Day 14 Washout,210
same,"Plasma Cholesterol Levels, Mean",African green monkeys; Day 20 (50 mg/kg/day per method),192
same,"Plasma Cholesterol Levels, individual animals","African green monkeys; Day 20 (dose not given; 50 mg/kg/day per method), 50 mg/kg/day",188 and 314 and 143 and 161 and 142 and 206
same,"Plasma Cholesterol Levels, individual animals","African green monkeys; Day 21 Washout (no drug, diet maintained)",270 and 344 and 193 and 168 and 216 and 246
same,"Plasma Cholesterol Levels, Mean",African green monkeys; Day 21 Washout,240
same,lowering plasma cholesterol levels,"African green monkeys; conclusion of the pilot study, 25 then 50 mg/kg/day in feed",effective in lowering plasma cholesterol levels
same,inhibition in vivo at 100 mg/kg/day,"Syrian Golden hamsters; Mesocricetus auratus, feed or water, 168 h, 0.2% (w/w) in diet for one week (100 mg/kg/day), negative values = serum cholesterol increased relative to control, read-out: Percent Lowering of Cholesterol from Control Value Mean",49.2%
same,Serum Cholesterol Mean,"Syrian Golden hamsters; 0.2% (w/w) in Cholesterol Test Diet for one week, equivalent to 100 mg/kg/day, groups of six, control mean 337, listed as (2)",171 mg/dL
same,Emax,"[1]; Homo sapiens, CHO, read-out: MA%",121%
same,MA%,[1],120% and 135%
